Reference: patent publication US20030121069A1, “Disruption of the phosphodiesterase 10 gene” (Pfizer Inc., priority 2001, published 2003)
Where two headings read alike, the source gives them in different places.

What was measured:
[1] = tested on: PDE10A+/+ and −/− mice; assay: Conditioned avoidance responding in PDE10A+/+ and −/− mice; settings: for ED50: Mus musculus
Source text: In the conditioned avoidance paradigm, animals are trained to move from a dark chamber in a shuttle box to a lighted chamber upon presentation of a conditioned stimulus in order to avoid a foot shock.
The conditioned avoidance shuttle chambers consist of individual Plexiglas behavior chambers (Coulbourn Instruments); each chamber divided by a guillotine door into two sides enclosed in sound attenuating cabinets. The Plexiglas chambers are fitted with metal grid floors, which are equipped with scrambled/constant current shockers. Mice are trained to avoid the onset of footshock (0.6 miliampere) by moving to the opposite side of the chamber upon activation of house lights, que lights, and the opening of the guillotine door, all of which occur 5 seconds prior to the foot shock. A computer program is used to record the number of successful avoidance responses (animals cross before onset of shock), as well as the number of escapes (where animals receive the foot shock and then cross), escape failures (where animals receive the foot shock yet still fail to cross), and the latencies to avoid (max 5 sec.) or escape (max.10 sec.) Thirty trials are completed per daily session, and inter-trial intervals are 15 seconds with the guillotine door closed. […] Vehicle treatment is performed one day every week and statistical analysis is done comparing each drug treatment on separate days vs. the vehicle treatment that week. Testing is performed during the lights on period of the light/dark cycle, typically between 8 am and 11 am. The data is analyzed using a paired t-test.

[2] = biological target: T1, PDE10A (Mus musculus, UniProt Q8CA95); assay: cGMP level in striatal and cortical extracts of PDE10A+/+ and −/− mice after Papaverine (enzyme immunoassay); format: in vivo; settings: PDE10A+/+ mice, 32 mg/kg intraperitoneally, 15 minutes, vs vehicle
T1 construct: from tissue; host or cells: mouse brain in vivo (striatum and cortex); DBA/1LacJ-derived PDE10A +/+ and −/− mice
T1 sequence (Q8CA95 1-779 isoform Q8CA95-2): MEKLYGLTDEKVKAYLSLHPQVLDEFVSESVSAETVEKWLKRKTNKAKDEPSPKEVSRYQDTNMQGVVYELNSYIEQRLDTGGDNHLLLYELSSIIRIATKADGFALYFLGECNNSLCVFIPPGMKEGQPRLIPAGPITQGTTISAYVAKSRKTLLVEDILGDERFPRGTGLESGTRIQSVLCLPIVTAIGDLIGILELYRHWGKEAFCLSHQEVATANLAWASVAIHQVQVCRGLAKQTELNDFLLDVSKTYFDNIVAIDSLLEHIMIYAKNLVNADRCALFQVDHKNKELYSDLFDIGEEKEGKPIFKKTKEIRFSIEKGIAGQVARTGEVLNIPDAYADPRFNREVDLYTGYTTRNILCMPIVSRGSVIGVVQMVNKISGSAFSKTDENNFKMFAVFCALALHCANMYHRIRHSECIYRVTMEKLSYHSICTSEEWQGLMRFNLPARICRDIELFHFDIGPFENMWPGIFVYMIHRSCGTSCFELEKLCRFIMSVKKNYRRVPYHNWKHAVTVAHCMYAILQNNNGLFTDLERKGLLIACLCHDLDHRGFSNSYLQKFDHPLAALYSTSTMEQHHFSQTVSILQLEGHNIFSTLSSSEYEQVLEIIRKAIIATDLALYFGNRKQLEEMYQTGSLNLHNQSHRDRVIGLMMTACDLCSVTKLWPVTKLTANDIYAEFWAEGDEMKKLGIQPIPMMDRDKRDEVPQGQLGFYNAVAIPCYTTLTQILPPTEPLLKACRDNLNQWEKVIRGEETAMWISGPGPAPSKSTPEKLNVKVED
Method: (§1) Fifteen minutes afterwards, mice were euthanized by focused-beam microwave irradiation of the head (2 second exposure in a Litton Systems 70/50 microwave, model BN-K2, General Medical Engineering Corp., Peabody, Mass.) to prevent enzymatic degradation of cyclic nucleotides. Striatal and cortical regions were isolated and stored at −80° C. until analysis. Samples were homogenized in 0.5 N HCl and then centrifuged at 20,000×g for 30 minutes. The cGMP concentrations in the supernatants were determined using enzyme immunoassay kits (Cayman Chemical, Ann Arbor, Mich., USA) according to the manufacturer's instructions.

[3] = tested on: PDE10A; assay: as above; format: in vivo; settings: PDE10A −/− mice, 32 mg/kg intraperitoneally, 15 minutes, vs vehicle
Method: as §1

[4] = tested on: PDE10A; settings: cited from earlier work
[5] = read-out: ED50, inhibition of conditioned avoidance responding, PDE10A+/+ mice

Structure (SMILES): COc1ccc(Cc2nccc3cc(OC)c(OC)cc23)cc1OC [Papaverine]
- ED50 [1, 5]: 20.7 mg/kg
- inhibition of conditioned avoidance responding ([1]; PDE10A −/− mice, doses up to 56 mg/kg): failed to inhibit
- effect on escape failures ([1]; PDE10A+/+ mice, highest dose tested (56 mg/kg)): no effect
- cGMP level from striatal extracts [2]: more than two fold elevation
- cGMP level in cortical extracts [2]: no effect
- striatal cGMP level [3]: only a slight increase

Structure (SMILES): O=C(CCCN1CCC(O)(c2ccc(Cl)cc2)CC1)c1ccc(F)cc1 [Haloperidol]
- ED50 ([1]; read-out: ED50, inhibition of conditioned avoidance responding, PDE10A −/− mice): 0.29 mg/kg
- ED50 [1, 5]: 0.21 mg/kg

Structure (SMILES): Nc1nc2c(ncn2[C@@H]2O[C@@H]3COP(=O)(O)O[C@H]3[C@H]2O)c(=O)[nH]1 [cGMP, cyclic guanine 3′5′-monophosphate]
- Vmax for cGMP over cAMP [4]: approximately 5 fold
- Km ([4]; read-out: Km (affinity of PDE10A for substrate)): 3 µM
